Measured values: article PMC12454493, “Insight on novel sulfamoylphenyl pyrazole derivatives as anticancer carbonic anhydrase inhibitors” (Molecular Diversity, 2024)

Experiments:
Format in all cases: cell-based
[1] = test system: KM12; assay: NCI-60 one-dose SRB screen (Colon Cancer); conditions: Homo sapiens, single dose 10 µM, 48 h, read-out: Growth inhibition percent (GI %)
Experimental: (§1) The National Cancer Institute (NCI) Developmental Therapeutic Program (www.dtp.nci.nih.gov) selected the 20 novel synthesized compounds 4a-e, 5a-e, 6a-c, 9a-e, 10 and 11 to test for their anticancer activity at a single dose of 10 µM using SRB assay. […] Supplementary Data S3; Table S1 presents the detailed screening results of the most promising compounds. The preliminary screening’s detailed results for the remaining compounds are elucidated in the (Supplementary Data S3; Table S2).
(§2) The guidelines of the Drug Evaluation Branch’s protocol at the NCI in Bethesda served as the basis for the in vitro anticancer screening assays. at one dose 10 µM against a panel of 60 cancer cell lines. The human tumor cell lines used belonged to nine panels: leukemia, melanoma, lung, colon, CNS, ovarian, renal, prostate and breast cancers using the sulforhodamine B (SRB) assay in a 48 h drug exposure protocol.

[2] = test system: COLO 205; assay: NCI-60 one-dose SRB screen (Colon Cancer); conditions: Homo sapiens, single dose 10 µM, 48 h, read-out: Growth inhibition percent (GI %)
Experimental: as §1, §2

[3] = test system: HCC-2998; assay: NCI-60 one-dose SRB screen (Colon Cancer); conditions: Homo sapiens, single dose 10 µM, 48 h, read-out: Growth inhibition percent (GI %)
Experimental: as §1, §2

[4] = test system: HCT-15; assay: NCI-60 one-dose SRB screen (Colon Cancer); conditions: Homo sapiens, single dose 10 µM, 48 h, read-out: Growth inhibition percent (GI %)
Experimental: as §1, §2

[5] = test system: HCT-116; assay: NCI-60 one-dose SRB screen (Colon Cancer); conditions: Homo sapiens, single dose 10 µM, 48 h, read-out: Growth inhibition percent (GI %)
Experimental: as §1, §2

[6] = test system: SW-620; assay: NCI-60 one-dose SRB screen (Colon Cancer); conditions: Homo sapiens, single dose 10 µM, 48 h, read-out: Growth inhibition percent (GI %)
Experimental: as §1, §2

[7] = test system: PC-3; assay: NCI-60 one-dose SRB screen (Prostate Cancer); conditions: Homo sapiens, single dose 10 µM, 48 h, read-out: Growth inhibition percent (GI %)
Experimental: as §1, §2

[8] = test system: DU-145; assay: NCI-60 one-dose SRB screen (Prostate Cancer); conditions: Homo sapiens, single dose 10 µM, 48 h, read-out: Growth inhibition percent (GI %)
Experimental: as §1, §2

[9] = test system: LOX IMVI; assay: NCI-60 one-dose SRB screen (Melanoma); conditions: Homo sapiens, single dose 10 µM, 48 h, read-out: Growth inhibition percent (GI %)
Experimental: as §1, §2

[10] = test system: MDA-MB-435; assay: NCI-60 one-dose SRB screen (Melanoma); conditions: Homo sapiens, single dose 10 µM, 48 h, read-out: Growth inhibition percent (GI %)
Experimental: as §1, §2

[11] = test system: M14; assay: NCI-60 one-dose SRB screen (Melanoma); conditions: Homo sapiens, single dose 10 µM, 48 h, read-out: Growth inhibition percent (GI %)
Experimental: as §1, §2

[12] = test system: UACC-62; assay: NCI-60 one-dose SRB screen (Melanoma); conditions: Homo sapiens, single dose 10 µM, 48 h, read-out: Growth inhibition percent (GI %)
Experimental: as §1, §2

[13] = test system: UACC-257; assay: NCI-60 one-dose SRB screen (Melanoma); conditions: Homo sapiens, single dose 10 µM, 48 h, read-out: Growth inhibition percent (GI %)
Experimental: as §1, §2

[14] = test system: MALME-3M; assay: NCI-60 one-dose SRB screen (Melanoma); conditions: Homo sapiens, single dose 10 µM, 48 h, read-out: Growth inhibition percent (GI %)
Experimental: as §1, §2

[15] = test system: SK-MEL-5; assay: NCI-60 one-dose SRB screen (Melanoma); conditions: Homo sapiens, single dose 10 µM, 48 h, read-out: Growth inhibition percent (GI %)
Experimental: as §1, §2

[16] = test system: SK-MEL-28; assay: NCI-60 one-dose SRB screen (Melanoma); conditions: Homo sapiens, single dose 10 µM, 48 h, read-out: Growth inhibition percent (GI %)
Experimental: as §1, §2

[17] = test system: MOLT-4; assay: NCI-60 one-dose SRB screen (Leukemia); conditions: Homo sapiens, single dose 10 µM, 48 h, read-out: Growth inhibition percent (GI %)
Experimental: as §1, §2

[18] = test system: SR; assay: NCI-60 one-dose SRB screen (Leukemia); conditions: Homo sapiens, single dose 10 µM, 48 h, read-out: Growth inhibition percent (GI %)
Experimental: as §1, §2

[19] = test system: CCRF-CEM; assay: NCI-60 one-dose SRB screen (Leukemia); conditions: Homo sapiens, single dose 10 µM, 48 h, read-out: Growth inhibition percent (GI %)
Experimental: as §1, §2

[20] = test system: K-562; assay: NCI-60 one-dose SRB screen (Leukemia); conditions: Homo sapiens, K562, single dose 10 µM, 48 h, read-out: Growth inhibition percent (GI %)
Experimental: as §1, §2

[21] = test system: HL-60(TB); assay: NCI-60 one-dose SRB screen (Leukemia); conditions: Homo sapiens, single dose 10 µM, 48 h, read-out: Growth inhibition percent (GI %)
Experimental: as §1, §2

[22] = test system: RPMI-8226; assay: NCI-60 one-dose SRB screen (Leukemia); conditions: Homo sapiens, single dose 10 µM, 48 h, read-out: Growth inhibition percent (GI %)
Experimental: as §1, §2

[23] = test system: CAKI-1; assay: NCI-60 one-dose SRB screen (Renal Cancer); conditions: Homo sapiens, single dose 10 µM, 48 h, read-out: Growth inhibition percent (GI %)
Experimental: as §1, §2

[24] = test system: RXF 393; assay: NCI-60 one-dose SRB screen (Renal Cancer); conditions: Homo sapiens, single dose 10 µM, 48 h, read-out: Growth inhibition percent (GI %)
Experimental: as §1, §2

[25] = test system: ACHN; assay: NCI-60 one-dose SRB screen (Renal Cancer); conditions: Homo sapiens, single dose 10 µM, 48 h, read-out: Growth inhibition percent (GI %)
Experimental: as §1, §2

[26] = test system: SN12C; assay: NCI-60 one-dose SRB screen (Renal Cancer); conditions: Homo sapiens, single dose 10 µM, 48 h, read-out: Growth inhibition percent (GI %)
Experimental: as §1, §2

[27] = test system: TK-10; assay: NCI-60 one-dose SRB screen (Renal Cancer); conditions: Homo sapiens, single dose 10 µM, 48 h, read-out: Growth inhibition percent (GI %)
Experimental: as §1, §2

[28] = test system: UO-31; assay: NCI-60 one-dose SRB screen (Renal Cancer); conditions: Homo sapiens, single dose 10 µM, 48 h, read-out: Growth inhibition percent (GI %)
Experimental: as §1, §2

[29] = test system: 786-0; assay: NCI-60 one-dose SRB screen (Renal Cancer); conditions: Homo sapiens, single dose 10 µM, 48 h, read-out: Growth inhibition percent (GI %)
Experimental: as §1, §2

[30] = test system: A498; assay: NCI-60 one-dose SRB screen (Renal Cancer); conditions: Homo sapiens, single dose 10 µM, 48 h, read-out: Growth inhibition percent (GI %)
Experimental: as §1, §2

For `NS(=O)(=O)c1ccc(NC(=O)COC(=O)c2cn(-c3ccc(S(N)(=O)=O)cc3)nc2-c2ccccc2)cc1` [Compound 4a, 2-Oxo-2-[(4-sulfamoylphenyl)amino] ethyl 3-phenyl-1-(4-sulfamoylphenyl)-1H-pyrazole-4-carboxylate], the inhibition at 10 µM [1] was less than 5%, the inhibition at 10 µM [2] was less than 5% and the inhibition at 10 µM [3] was less than 5%. For the same molecule, the inhibition at 10 µM [4] was less than 5%, the inhibition at 10 µM [5] was 27.8% and the inhibition at 10 µM [6] was less than 5%. For the same molecule, the inhibition at 10 µM [7] was less than 5%, the inhibition at 10 µM [8] was less than 5% and the inhibition at 10 µM [9] was less than 5%. The inhibition at 10 µM [10] was less than 5%, the inhibition at 10 µM [11] was 23.2% and the inhibition at 10 µM [12] was less than 5%. It also gave an inhibition at 10 µM [13] of less than 5%, an inhibition at 10 µM [14] of 8.55% and an inhibition at 10 µM [15] of less than 5%. It also gave an inhibition at 10 µM [16] of less than 5%, an inhibition at 10 µM [17] of less than 5% and an inhibition at 10 µM [18] of less than 5%. The inhibition at 10 µM [19] was less than 5%, the inhibition at 10 µM [20] was 16.7% and the inhibition at 10 µM [21] was 16.6%. For the same molecule, the inhibition at 10 µM [22] was less than 5%, the inhibition at 10 µM [23] was 11.6% and the inhibition at 10 µM [24] was less than 5%. For the same molecule, the inhibition at 10 µM [25] was less than 5%, the inhibition at 10 µM [26] was less than 5% and the inhibition at 10 µM [27] was less than 5%. It also gave an inhibition at 10 µM [28] of 15%, an inhibition at 10 µM [29] of 31.2% and an inhibition at 10 µM [30] of less than 5%.
